Source: publication PMC12644462, “A novel radiosensitizer α-sulfoquinovosyl-acylpropanediol (SQAP) inhibits DNA repair pathways and sensitize cells to cancer chemotherapeutic agents” (Scientific Reports, 2025)
Where two headings read alike, the source gives them in different places.

How the values were obtained:
[1] = test system: seven canine cancer cell lines; settings: all seven cell lines
Experimental: Sensitivity to radiation or chemical reagents was assessed through colony formation assays. After trypsinized single cells were plated to form 20–200 colonies per dish and then treated with SQAP for 3 h in normoxia or hypoxia, the cells were irradiated. For drug sensitivity study, trypsinized cells were plated and then treated with various dosage of testing agents. After seven days of incubation, colonies were fixed, stained and scored. Regression curves were drawn from survival fraction, and D10 values (doses to achieve 10% cell survival) were calculated by Prism 8 (GraphPad software, San Diego, CA, USA) from at least three independent experiments. Oxygen enhancement ratio (OER) and sensitization enhancement ratio (SER) values were calculated from D10 values. OER values were calculated from the D10 value in hypoxia divided by the D10 value in normoxic condition. SER values were calculated from the D10 value without SQAP divided by the D10 value with SQAP.

[2] = test system: seven canine cancer cell lines (Abrams, D17, Moresco, CML-6M, Jones, CML-10C2, STSA-1); assay: Colony formation assay, gamma-ray radiosensitization in normoxia or hypoxia; type: cell-based; settings: 30 µM SQAP
Experimental: Irradiation was conducted by JL Shepard Mark I ^137Cs irradiator (nominal 6000 Ci) with dose rate of approximately 2.5 Gy per minute at room temperature. For hypoxia irradiation, cell cultures were placed in Aneropak Kenki system (Mitsubishi Gas Chemical, Tokyo, Japan) with oxygen meter to confirm pO2 below 0.1%. Cells were kept in hypoxia for 3 h before irradiation.

[3] = test system: Chinese hamster V79 cells; assay: Colony formation assay, radio- and chemosensitization; type: cell-based
Experimental: For hypoxia irradiation, cell cultures were placed in Aneropak Kenki system (Mitsubishi Gas Chemical, Tokyo, Japan) with oxygen meter to confirm pO2 below 0.1%. Cells were kept in hypoxia for 3 h before irradiation.

Topo I = target: T1, Topo I (Homo sapiens, UniProt P11387); assay: Topoisomerase I assay; type: biochemical; settings: supercoiled pHOT1 DNA, 37 °C, 30 min
T1 sequence (P11387 1-765): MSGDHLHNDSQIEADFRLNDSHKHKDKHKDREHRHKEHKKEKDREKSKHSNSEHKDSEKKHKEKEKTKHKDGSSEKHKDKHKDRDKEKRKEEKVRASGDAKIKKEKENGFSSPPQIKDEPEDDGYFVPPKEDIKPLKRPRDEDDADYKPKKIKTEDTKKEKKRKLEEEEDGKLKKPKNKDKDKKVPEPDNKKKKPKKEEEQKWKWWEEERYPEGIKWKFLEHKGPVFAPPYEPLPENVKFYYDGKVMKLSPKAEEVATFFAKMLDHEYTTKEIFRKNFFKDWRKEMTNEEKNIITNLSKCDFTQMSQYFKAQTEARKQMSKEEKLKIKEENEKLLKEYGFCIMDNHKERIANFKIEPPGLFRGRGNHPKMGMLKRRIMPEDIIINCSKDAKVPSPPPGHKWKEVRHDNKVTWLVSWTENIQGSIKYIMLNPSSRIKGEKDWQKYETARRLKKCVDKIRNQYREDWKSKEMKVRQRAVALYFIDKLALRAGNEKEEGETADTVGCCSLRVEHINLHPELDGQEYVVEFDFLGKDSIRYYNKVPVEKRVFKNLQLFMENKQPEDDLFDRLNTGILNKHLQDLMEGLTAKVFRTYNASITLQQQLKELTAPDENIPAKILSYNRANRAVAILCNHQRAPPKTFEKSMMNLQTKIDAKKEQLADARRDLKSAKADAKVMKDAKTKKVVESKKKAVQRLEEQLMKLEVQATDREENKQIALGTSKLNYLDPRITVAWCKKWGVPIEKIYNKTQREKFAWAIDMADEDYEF
Experimental: (§1) For topoisomerase (Topo) I assay, a mixture of 125 ng of supercoiled pHOT1 DNA, 1U of Topo I enzyme, and various concentrations of SQAP in 1 mM Tris-HCl (pH7.9), 0.1 mM EDTA, 0.015 M NaCl, 0.01% BSA, 0.01 mM Spermidine and 0.5% glycerol was incubated at 37 °C for 30 min. For Topo II alpha assay, a mixture of 10 µL containing of 50 ng of […] DNA in 0.05 M Tris-HCl (pH8), 1U of Topo II alpha, various concentrations of SQAP in 0.15 M NaCl, 10 mM MgCl2, 0.5mM DTT, 30 µg/mL of BSA, 2 mM ATP was incubated at 37 °C for 30 min. After the reaction was terminated, electrophoresis was conducted at 50 V for 3 h, followed by ethidium bromide staining. DNA images were obtained by a Bio-Rad imager (Bio-Rad, Hercules, CA, USA) and quantified with Image Lab software (Bio-Rad).

Topo II alpha = Topo II alpha (Homo sapiens, UniProt P11388); assay: Topoisomerase II alpha assay; type: biochemical; settings: kinetochore DNA, 37 °C, 30 min
Topo II alpha, sequence (P11388 whole entry): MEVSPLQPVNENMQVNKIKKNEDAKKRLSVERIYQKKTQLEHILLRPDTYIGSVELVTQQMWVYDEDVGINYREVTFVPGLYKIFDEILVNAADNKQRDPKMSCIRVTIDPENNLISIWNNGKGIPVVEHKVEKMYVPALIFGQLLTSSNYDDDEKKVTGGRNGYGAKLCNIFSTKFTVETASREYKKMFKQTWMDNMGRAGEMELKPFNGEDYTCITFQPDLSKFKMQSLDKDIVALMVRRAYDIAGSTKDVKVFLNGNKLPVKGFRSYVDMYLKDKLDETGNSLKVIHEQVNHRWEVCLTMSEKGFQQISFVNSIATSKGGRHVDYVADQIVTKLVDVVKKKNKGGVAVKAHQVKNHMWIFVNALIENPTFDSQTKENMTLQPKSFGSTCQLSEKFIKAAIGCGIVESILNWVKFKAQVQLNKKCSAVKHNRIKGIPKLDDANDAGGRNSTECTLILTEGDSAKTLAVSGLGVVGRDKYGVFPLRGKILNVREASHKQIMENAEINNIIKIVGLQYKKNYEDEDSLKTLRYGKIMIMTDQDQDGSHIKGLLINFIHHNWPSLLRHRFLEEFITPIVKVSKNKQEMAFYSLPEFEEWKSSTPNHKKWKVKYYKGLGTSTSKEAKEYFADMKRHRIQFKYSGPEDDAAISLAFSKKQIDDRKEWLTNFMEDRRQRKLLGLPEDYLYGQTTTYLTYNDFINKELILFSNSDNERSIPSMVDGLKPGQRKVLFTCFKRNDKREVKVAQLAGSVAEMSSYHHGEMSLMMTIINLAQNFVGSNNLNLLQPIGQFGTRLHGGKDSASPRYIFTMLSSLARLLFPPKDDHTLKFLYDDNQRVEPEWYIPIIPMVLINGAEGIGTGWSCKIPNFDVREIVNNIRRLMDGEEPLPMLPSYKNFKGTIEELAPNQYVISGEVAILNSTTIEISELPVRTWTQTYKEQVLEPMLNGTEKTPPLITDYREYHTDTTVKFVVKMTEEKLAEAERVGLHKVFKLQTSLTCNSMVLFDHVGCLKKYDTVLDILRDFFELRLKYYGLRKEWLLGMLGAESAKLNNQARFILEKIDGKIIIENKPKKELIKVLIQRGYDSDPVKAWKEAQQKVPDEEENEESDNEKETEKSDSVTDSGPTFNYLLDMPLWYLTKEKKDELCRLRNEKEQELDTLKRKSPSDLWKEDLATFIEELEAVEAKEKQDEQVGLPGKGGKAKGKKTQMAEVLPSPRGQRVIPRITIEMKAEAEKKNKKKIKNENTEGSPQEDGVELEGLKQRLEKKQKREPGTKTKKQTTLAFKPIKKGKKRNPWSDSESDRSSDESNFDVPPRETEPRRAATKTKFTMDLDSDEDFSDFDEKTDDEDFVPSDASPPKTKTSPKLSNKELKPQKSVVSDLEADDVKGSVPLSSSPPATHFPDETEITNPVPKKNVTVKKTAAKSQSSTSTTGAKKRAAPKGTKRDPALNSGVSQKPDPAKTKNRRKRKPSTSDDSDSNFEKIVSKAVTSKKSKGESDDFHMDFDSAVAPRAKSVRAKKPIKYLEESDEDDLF
Experimental: as §1

CHO cells = assay: Chromosome aberration assay; type: cell-based, Chinese hamster; settings: G1-irradiated CHO cells, 4 Gy, with SQAP
Experimental: Two hours after mitotic shake-off and replating, CHO cells in the G1 phase were irradiated. After 10 h, colcemid was added for 6 h to collect metaphase cells. Chromosome spreads were prepared as sister chromatid exchange assay and stained with a 5% Giemsa stain. At least 50 metaphase spreads were scored in three independent experiments.

[4] = test system: Chinese hamster V79 cells; assay: Colony formation assay, radio- and chemosensitization; type: cell-based; settings: V79, gamma-rays, normoxic condition
[5] = test system: histone deacetylase 1 (HDAC1); parameters: method as in PMID 33577659; settings: cited from earlier work
HDAC1 expression = test system: HDAC1 expression; parameters: method as in PMID 33577659; settings: hypoxic conditions ref 11; cited from earlier work
[6] = test system: poly (ADP-ribose) polymerase (PARP); parameters: method as in PMID 37973295; settings: cited from earlier work
[7] = test system: poly (ADP-ribose) glycohydrolase (PARG); parameters: method as in PMID 37973295; settings: cited from earlier work
[8] = test system: dogs and cats with cancer; settings: dogs and cats with cancer receiving radiation therapy ref 8, 9; cited from earlier work
[9] = in vivo ref 34; cited from earlier work

CCCCCCCCCCCCCCCCCC(=O)OCCCO[C@H]1O[C@H](CS(=O)(=O)O)[C@@H](O)[C@H](O)[C@H]1O [SQAP, Alpha-sulfoquinovosylacyl-1,3-propanediol]
cytotoxicity of continuous exposure of SQAP (clonogenic survival) ([1]; 30 µM SQAP): tolerance
cytotoxicity of continuous exposure of SQAP (clonogenic survival) ([1]; 60 µM SQAP): minimal cell viability
changes in OER values with and without SQAP treatment [2]: not observed
radiosensitization to gamma-ray exposure ([2]; both normoxic and hypoxia conditions): induced radiosensitization
radiosensitization ([3]; V79, SQAP pretreatment alone): did not enhance radiation sensitivity
radiosensitization ([3]; V79, continuous SQAP treatment before and after irradiation, normoxic and hypoxic): Radiosensitization was observed
IC50 (Topo I): 25 µM
IC50 (Topo II alpha): 9 µM
chromosome-type aberrations (CHO cells): approximately 2.4
sensitization enhancement ratio (SER) [4]: 1.3
HDAC1 enzymatic inhibition [5]: does not inhibit
HDAC1 expression (HDAC1 expression): reduces
PARP inhibition [6]: inhibitory effect
PARG inhibition [7]: inhibitory effect
adverse systemic events [8]: not detected
clearance from normal tissues and persistence in tumors [9]: rapidly cleared from normal tissues but persists in tumors for several hours
